Source: EPA's ToxValDB 9.5

Assays:
Monkey [1] = details: short-term; duration: 29 days; oral; capsule; M; Cynomolgus; blood: basophils + blood: eosinophils + blood: lymphocytes + blood: monocytes + blood: reticulocytes + blood: segmented neutrophils + blood…
Labeo boga = details: whole body
Bird = details: subchronic, duration: 8 week, oral, drinking water, M, Japanese quail
Rattus norvegicus = details: subchronic; duration: 90 days; oral; diet; M; Crl:CD(SD) BR; Body Weight Changes: Weight gain decrease + Absolute Organ Weight: Liver increase + Relative Organ Weight: Liver increase + Histopathology: …
Monkey [2] = details: oral
Oryctolagus sp. = details: acute, dermal; for LOAEL: duration: 1 days
[3] = short-term, duration: 7 day, M, Medaka, liver IL-1Beta/Beta-actin mRNA ratio + liver IL-6/Beta-actin mRNA ratio
[4] = short-term, duration: 21 day, M/F, mRNA expression levels of IgM in spleen + mRNA expression levels of IL-1 beta in spleen + mRNA expression levels of myd88 in spleen
[5] = chronic, duration: 26 weeks, M, Cynomolgus, Body Weight: 12% decrease by week 10
[6] = chronic, duration: 26 weeks, M, Cynomolgus, Endocrine: Significant decrease in serum TT4 (27-35%) and FT4 (30-38%)

In the case of O=C([O-])C(F)(F)C(F)(F)C(F)(F)C(F)(F)C(F)(F)C(F)(F)C(F)(F)F.[NH4+] [Ammonium perfluorooctanoate], the NOEL (Monkey [1]) was 20 mg/kg-day, the LOEL (Labeo boga; [3]) was 50 mg/L and the NOEL (Labeo boga; [3]) was 10 mg/L. For the same compound, the LOEL (Labeo boga; short-term, duration: 7 day, M, Medaka, liver TNF-alpha/Beta-actin mRNA ratio) was 10 mg/L, the LOEL (Labeo boga; short-term, duration: 15 day, M/F, Medaka, c-type lysozyme mRNA expression) was 1 mg/L and the NOEL (Labeo boga; short-term, duration: 15 day, M/F, Medaka, complement component C3-1 mRNA expression) was 1 mg/L. The LOEL (Labeo boga; short-term, duration: 21 day, M/F, Atlantic Salmon, cortisol) was 0.1 mg/L, the LOEL (Labeo boga; short-term, duration: 21 day, M/F, mRNA expression levels of IgD in spleen + mRNA expression levels of IgZ in spleen + mRNA expression levels of IL-21 in spleen + mRNA …) was 0.05 mg/L and the LOEL (Labeo boga; [4]) was 0.1 mg/L. It also gave an NOEL (Labeo boga; [4]) of 0.05 mg/L, an LOEL (Labeo boga; subchronic, duration: 48 day, M/F, Atlantic Salmon, cortisol) of 0.1 mg/L and an NOEL (Labeo boga; subchronic, duration: 48 day, M/F, Atlantic Salmon, fresh weight + length + thymus: thymus somatic index + thymus: thymus volume) of 0.1 mg/L. For the same compound, the LOEL (Labeo boga; subchronic, duration: 56 day, M/F, Atlantic Salmon, cortisol) was 0.1 mg/L, the LOEL (Bird; PHA skin test (DTH response)) was 2.1 mg/kg-day and the NOEL (Bird; PHA skin test (DTH response)) was 0.2 mg/kg-day. For the same compound, the NOEL (Bird; bacteremia (subsequent to E. coli challenge) + cellulitis (subsequent to E. coli challenge) + chemiluminescence of ROS produced by innate …) was 2.1 mg/kg-day, the NOAEL (Rattus norvegicus) was 0.096 mg/kg-day and the LOAEL (Monkey [2]; [5]) was 20 mg/kg-day. For the same compound, the NOAEL (Monkey [2]; [5]) was 10 mg/kg-day, the LOAEL (Monkey [2]; [6]) was 10 mg/kg-day and the NOAEL (Monkey [2]; [6]) was 3 mg/kg-day. The LOAEL (Monkey [2]; chronic, duration: 26 weeks, M, Cynomolgus, Hepatic: 36% increase in absolute liver weight at ?3 mg/kg/day / increased serum triglyceride levels at 30/20 mg/kg/day) was 3 mg/kg-day, the NOAEL (Monkey [2]; chronic, duration: 26 weeks, M, Cynomolgus, Immunotoxicological: No histological alterations + Neurological: No histological alterations + Reproductive: No histological alterations) was 20 mg/kg-day and the LOAEL (Monkey [2]; short-term, duration: 2 weeks, M/F, Rhesus, Death: Unspecified number out of four died on week 2) was 100 mg/kg-day. The NOAEL (Monkey [2]; subchronic, duration: 30 days, M, Cynomolgus, Endocrine: No alterations in serum levels of thyroid hormones and TSH and histopathology of adrenals + Reproductive: No alterations in serum…) was 20 mg/kg-day, the NOAEL (Monkey [2]; subchronic, duration: 90 days, M/F, Rhesus) was 30 mg/kg-day and the LOAEL (Monkey [2]; subchronic, duration: 90 days, M/F, Rhesus, Body Weight: 33% body weight loss by week 6 + Death: One male and two females died during weeks 7-12) was 30 mg/kg-day. For the same compound, the NOAEL (Monkey [2]; subchronic, duration: 90 days, M/F, Rhesus, Body Weight: 33% body weight loss by week 6 + Gastrointestinal: Emesis + Immunotoxicological: Atrophy of lymphoid follicles in spleen and …) was 10 mg/kg-day, the LOAEL (Monkey [2]; subchronic, duration: 90 days, M/F, Rhesus, Gastrointestinal: Emesis + Immunotoxicological: Atrophy of lymphoid follicles in spleen and lymph nodes + Neurological: Hypoactivity and …) was 30 mg/kg-day and the NOAEL (Monkey [2]; subchronic, duration: 90 days, M/F, Rhesus, Reproductive: No histological alterations in testes or ovaries) was 100 mg/kg-day. It also gave an LOAEL (Oryctolagus sp.; Albino, Ocular: Moderate eye irritation) of 100 mg, an LOAEL (Oryctolagus sp.; M, New Zealand, Death: 14-day LD50) of 4300 mg/kg-day and an NOAEL (Oryctolagus sp.; duration: 24 hours, Albino) of 500 mg.
